From patent publication US10188754B2, “Compositions and methods for chemical exchange saturation transfer (CEST) based magnetic resonance imaging (MRI)” (THE JOHNS HOPKINS UNIVERSITY, priority 2013, dated 2019)

assay: not given; conditions: Table 2; 10 mM, pH 7.3-7.4, 37° C.

Compound | kex
O=C(O)c1ccc(C(=O)O)c(O)c1 [Compound 18] | 420 s⁻¹
O=C(O)c1ccc([N+](=O)[O-])cc1O [Compound 19, 2-hydroxy-4-nitrobenzoic acid] | 1500 s⁻¹
Nc1ccc(C(=O)O)c(O)c1 [Compound 17] | 384 s⁻¹

same assay, conditions: Table 6; 10 mM, pH 7.3-7.4, 37° C.

Compound | kex
O=C(O)c1cc(O)c(C(=O)O)cc1O [Compound 42] | 990 s⁻¹
O=C(O)c1cc2ccccc2c(Cc2c(O)c(C(=O)O)cc3ccccc23)c1O [Compound 44, Pamoic acid] | 130 s⁻¹

assay: Screening of beta-hydroxy carboxylate analogs for CEST contrast (Table 4A); conditions: Concentration 5 mM
Procedure: All compounds were dissolved in 0.01M phosphate-buffered saline (PBS) with concentrations of 100 mM. They were then titrated by HCl/NaOH to the pH of 6 to 8. The solutions were placed into 1-mm capillary tubes and then assembled in a holder for high throughput CEST MR imaging. […] CEST contrast was quantified by: MTRasym=(S−Δω−S+Δω)/S0 after a voxel-by-voxel B0 correction, with characterized mean Z-spectra and MTRasym spectra for sample ROIs plotted in FIG. 22.

Compound | Signal (ppm)
Cc1cccc(Nc2ccccc2C(=O)O)c1Cl [Entry 53] | None
Cc1ccc(Cl)c(Nc2ccccc2C(=O)O)c1Cl [Entry 51] | 4.8 ppm
Cc1cccc(Nc2ccccc2C(=O)O)c1C [Entry 52] | None

same assay, conditions: Concentration 10 mM

Compound | Signal (ppm) | kex
O=C(O)c1ccc(O)c(/C=N/CC/N=C/c2cc(C(=O)O)ccc2O)c1 [Entry 11] | 7.8 ppm | 15400 s⁻¹
CS(=O)(=O)Nc1ccc(N)cc1C(=O)O [Entry 61] | 6.3 ppm | 550 s⁻¹
O=Cc1cccc(C(=O)O)c1O [Entry 39] | 10.5 ppm | 510 s⁻¹
O/N=C/c1ccccc1O [Entry 10] | None | –
O=C(O)c1ccccc1O [Entry 1] | 9.3 ppm | 400 s⁻¹
COc1cccc(C(=O)O)c1O [Entry 37] | 9.3 ppm | 480 s⁻¹
O=C(O)c1ccccc1Nc1cccc(C(F)(F)F)c1 [Entry 50] | 4.8 ppm | 1000 s⁻¹
Nc1cccc(C(=O)O)c1O [Entry 38] | 9.0 ppm | 410 s⁻¹
NC(Cc1cc(I)c(O)c(I)c1)C(=O)O (stereo not shown) [Entry 14] | None | –
O=[N+]([O-])c1ccccc1O [Entry 6] | None | –
O=C(O)c1ccc(O)cc1O [Entry 21] | 9.5 ppm | 462 s⁻¹
O=C(O)c1cc(Br)cc(Br)c1O [Entry 32] | 10.5 ppm | 580 s⁻¹
CS(=O)(=O)Nc1ccccc1C(=O)O [Entry 58] | 7.3 ppm | 470 s⁻¹
O=C(O)c1c(O)cccc1O [Entry 27] | 9.3 ppm | 30 s⁻¹
O=C(O)c1ccc(C(=O)O)c(O)c1 [Entry 23] | 9.3 ppm | 420 s⁻¹
O=C(O)c1cc(I)cc(I)c1O [Entry 33] | 10.8 ppm | 310 s⁻¹
Nc1ccc(C(=O)O)c(O)c1 [Entry 22] | 9.5 ppm | 384 s⁻¹
O=C(O)c1cc(O)ccc1O [Entry 15] | 8.5 ppm | 400 s⁻¹
O=C(O)c1cc([N+](=O)[O-])cc([N+](=O)[O-])c1O [Entry 20] | None | –
COC(=O)c1ccc(O)c([N+](=O)[O-])c1 [Entry 7] | None | –
O=C(O)c1ccc([N+](=O)[O-])cc1O [Entry 24] | 9.5 ppm | 1500 s⁻¹

Further lines, results first:

Signal (ppm) | kex | Compound
9.5 ppm | 250 s⁻¹ | Cc1cccc(C(=O)O)c1O [Entry 28]
10.5 ppm | 220 s⁻¹ | O=C(O)c1ccc2ccccc2c1O [Entry 34]
7.8 ppm | 440 s⁻¹ | Cc1ccc(S(=O)(=O)Nc2ccccc2C(=O)O)cc1 [Entry 62]
None | – | COC(=O)c1cc([N+](=O)[O-])ccc1O [Entry 5]
9.5 ppm | 4400 s⁻¹ | O=C(O)c1c(O)ccc2ccccc12 [Entry 25]
None | – | COC(=O)c1ccccc1O [Entry 4]
9.5 ppm | 6680 s⁻¹ | O=C(O)c1cccc(C(=O)O)c1O [Entry 40]
9.5 ppm | 130 s⁻¹ | O=C(O)c1cc2ccccc2c(Cc2c(O)c(C(=O)O)cc3ccccc23)c1O [Entry 44]
9.0 ppm | 2000 s⁻¹ | O=C(O)c1cccc(O)c1O [Entry 36]
10.3 ppm | 1070 s⁻¹ | O=C(O)c1cc(Cl)cc(Cl)c1O [Entry 31]
9.0 ppm | 4900 s⁻¹ | COc1cccc(O)c1C(=O)O [Entry 26]
10.3 ppm | 1530 s⁻¹ | O=C(O)c1ccc2cccnc2c1O [Entry 35]
None | – | Oc1ccccc1-c1nnn[nH]1 [Entry 13]
8.3 ppm | 990 s⁻¹ | O=C(O)c1cc(O)c(C(=O)O)cc1O [Entry 42]
9.0 ppm | 290 s⁻¹ | O=C(O)c1cc(Cl)ccc1O [Entry 17]
9.5 ppm | 750 s⁻¹ | O=C(O)c1cccc(F)c1O [Entry 30]
12.0 ppm | 1430 s⁻¹ | O=C(O)c1cccc([N+](=O)[O-])c1O [Entry 41]
4.8 ppm | 674 s⁻¹ | O=C(O)c1ccccc1Nc1ccccc1 [Entry 49]
10.3 ppm | 5660 s⁻¹ | O=C(O)c1cc([N+](=O)[O-])ccc1O [Entry 19]
None | – | O=C(O)c1cccnc1Nc1cccc(C(F)(F)F)c1 [Entry 54]
None | – | O=C(O)CNC(=O)c1ccccc1O [Entry 3]
9.5 ppm | 32 s⁻¹ | [O-][n+]1cccc2cccc(O)c21 [Entry 8]
None | – | O=Cc1cc(C(=O)O)ccc1O [Entry 9]
9.3 ppm | 190 s⁻¹ | O=C(O)c1ccccc1NC(=O)C(F)(F)F [Entry 57]
9.8 ppm | 460 s⁻¹ | O=C(O)c1cc(C(=O)O)c(O)cc1O [Entry 43]
8.5 ppm | 380 s⁻¹ | Nc1ccc(O)c(C(=O)O)c1 [Entry 16]

same assay, conditions: Concentration 20 mM

Compound | Signal (ppm) | kex
CC(C)(C)c1cc(C(=O)O)c(O)c(C(C)(C)C)c1 [Entry 29] | 9.3 ppm | 22 s⁻¹

same assay, conditions: Concentration 25 mM

Compound | Signal (ppm) | kex
O=C(O)c1cc(/N=N\c2ccc(S(=O)(=O)Nc3ccccn3)cc2)ccc1O [Entry 46] | 9.6 ppm | 1000 s⁻¹
Nc1ccccc1C(=O)O [Entry 47] | None | –
CC(=O)Nc1ccccc1C(=O)O [Entry 55] | None | –
Cc1ccc(NS(C)(=O)=O)c(C(=O)O)c1 [Entry 60] | 7.0 ppm | 500 s⁻¹
CNc1ccccc1C(=O)O [Entry 48] | None | –

Now from value to molecule:

Signal (ppm) | kex | Compound
None | – | O=C(O)c1ccccc1NS(=O)(=O)C(F)(F)F [Entry 63]
None | – | O=C(O)c1ccccc1N/N=C\c1ccccc1 [Entry 64]
None | – | CC(C)(C)OC(=O)Nc1ccccc1C(=O)O [Entry 56]
9.3 ppm | 650 s⁻¹ | O=C(O)c1ccc(-c2ccc(F)cc2F)cc1O [Entry 45]
7.3 ppm | 1000 s⁻¹ | CS(=O)(=O)Nc1ccc(Cl)cc1C(=O)O [Entry 59]

assay: not given; type: physicochemical; conditions: Table 2; 10 mM, pH 7.3-7.4, tsat = 3 sec, ω1 = 3.6 μT, 37° C.

Compound | Signal (ppm)
O=C(O)c1cc([N+](=O)[O-])cc([N+](=O)[O-])c1O [Compound 15, 3,5-Dinitrosalicylic acid] | None
O=C(O)c1ccc([N+](=O)[O-])cc1O [Compound 19, 2-hydroxy-4-nitrobenzoic acid] | 9.5 ppm
Nc1ccc(C(=O)O)c(O)c1 [Compound 17] | 9.5 ppm

The next lines start with the values.

Signal (ppm) | Compound
9.3 ppm | O=C(O)c1ccc(C(=O)O)c(O)c1 [Compound 18]
10.3 ppm | O=C(O)c1cc([N+](=O)[O-])ccc1O [Compound 14, 5-nitrosalicylic acid]

same assay, conditions: Table 4; 10 mM, pH 7.3-7.4, tsat = 3 sec, ω1 = 3.6 μT, 37° C.

Compound | Signal (ppm)
O=C(O)c1cccc([N+](=O)[O-])c1O [Compound 36, 3-nitrosalicylic acid] | 12.0 ppm
O=C(O)c1cccc(O)c1O [Compound 31, 2,3-dihydroxybenzoic acid] | 9.0 ppm
O=C(O)c1cccc(C(=O)O)c1O [Compound 35, 2-hydroxyisophthalic acid] | 9.5 ppm
O=C(O)c1ccc2cccnc2c1O [Compound 30, 8-hydroxy-7-quinolinecarboxylic acid] | 10.3 ppm

same assay, conditions: Table 6; 10 mM, pH 7.3-7.4, tsat = 3 sec, ω1 = 3.6 μT, 37° C.

Compound | Signal (ppm)
O=C(O)c1cc(O)c(C(=O)O)cc1O [Compound 42] | 8.3 ppm
O=C(O)c1cc2ccccc2c(Cc2c(O)c(C(=O)O)cc3ccccc23)c1O [Compound 44, Pamoic acid] | 9.5 ppm
